Assay results published in patent US20080146669A1, “Novel Chloride Channel Pore Openers” (THE UAB RESEARCH FOUNDATION, priority 2005, published 2008).
Blank lines part the entries; values can stand above or below the compound they belong to.

How the values were obtained:
wild-type CFTR = wild-type CFTR (Homo sapiens, UniProt P13569); assay: Macroscopic currents in excised inside-out patches from BHK-CFTR cells; format: biochemical; set-up: expressed in transfected cells; provided by J. Hanrahan (McGill University)
wild-type CFTR, sequence (P13569 whole entry): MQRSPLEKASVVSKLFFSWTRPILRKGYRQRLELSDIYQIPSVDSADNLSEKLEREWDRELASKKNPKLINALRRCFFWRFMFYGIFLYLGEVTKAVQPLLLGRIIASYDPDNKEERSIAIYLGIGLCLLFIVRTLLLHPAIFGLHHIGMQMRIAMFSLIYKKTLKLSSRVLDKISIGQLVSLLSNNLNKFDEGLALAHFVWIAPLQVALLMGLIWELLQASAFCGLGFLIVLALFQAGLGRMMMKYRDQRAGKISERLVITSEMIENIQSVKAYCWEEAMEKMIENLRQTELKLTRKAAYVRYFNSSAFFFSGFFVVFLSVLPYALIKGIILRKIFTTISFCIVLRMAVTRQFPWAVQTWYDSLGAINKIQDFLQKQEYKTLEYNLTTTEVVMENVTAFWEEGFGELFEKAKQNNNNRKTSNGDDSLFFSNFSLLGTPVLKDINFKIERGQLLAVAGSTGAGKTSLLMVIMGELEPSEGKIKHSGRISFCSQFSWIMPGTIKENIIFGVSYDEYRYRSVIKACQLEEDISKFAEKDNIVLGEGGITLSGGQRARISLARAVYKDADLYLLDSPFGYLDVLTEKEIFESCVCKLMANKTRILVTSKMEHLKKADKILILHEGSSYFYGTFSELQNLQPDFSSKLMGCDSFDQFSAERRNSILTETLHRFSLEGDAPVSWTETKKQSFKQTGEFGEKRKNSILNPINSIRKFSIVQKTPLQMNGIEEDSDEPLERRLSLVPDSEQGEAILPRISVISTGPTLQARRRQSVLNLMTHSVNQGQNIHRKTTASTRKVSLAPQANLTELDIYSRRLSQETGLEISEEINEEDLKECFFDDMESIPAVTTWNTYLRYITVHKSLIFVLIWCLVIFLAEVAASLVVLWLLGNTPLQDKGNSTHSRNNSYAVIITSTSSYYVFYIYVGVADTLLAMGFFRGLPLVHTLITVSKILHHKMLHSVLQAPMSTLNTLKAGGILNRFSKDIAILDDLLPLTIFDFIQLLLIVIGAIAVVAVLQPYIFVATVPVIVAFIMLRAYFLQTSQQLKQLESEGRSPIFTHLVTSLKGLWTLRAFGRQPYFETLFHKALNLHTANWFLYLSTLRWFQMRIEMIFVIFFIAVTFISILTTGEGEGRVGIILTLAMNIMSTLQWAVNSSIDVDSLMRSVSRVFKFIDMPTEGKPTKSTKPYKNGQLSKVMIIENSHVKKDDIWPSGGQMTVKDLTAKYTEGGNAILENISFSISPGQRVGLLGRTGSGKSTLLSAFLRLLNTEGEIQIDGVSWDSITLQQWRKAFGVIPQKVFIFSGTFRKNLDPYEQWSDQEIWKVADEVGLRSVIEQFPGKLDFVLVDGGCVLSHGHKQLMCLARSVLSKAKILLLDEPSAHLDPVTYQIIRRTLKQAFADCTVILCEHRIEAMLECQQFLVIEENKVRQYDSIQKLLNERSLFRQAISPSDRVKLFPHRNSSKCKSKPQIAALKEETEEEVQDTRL
Description: Cell culture DNA constructs and transfections. Baby hamster kidney (BHK) cells stably expressing wild type human CFTR (BHK-CFTR) were provided by J. Hanrahan (McGill University). BHK-CFTR cells were cultured in Dulbecco's modified Eagle's medium (DMEM (Mediatech)) supplemented with 5% fetal bovine serum (FBS) and 1 mM penicillin-streptomycin. The growth media for the BHK-CFTR cells also contained 0.5 mM methotrexate to maintain selection for CFTR-expressing cells (22). HEK-293T cells were transiently transfected with wild-type or mutant CFTR cDNA using the Lipofectamine transfection kit following manufacturer's recommendations (Invitrogen, Corp). HEK-293T cells were cultured in DMEM. All cells were grown on plastic coverslips for patch clamp recording and were used 2-3 days post-seeding. Electrophysiology and data analysis. Macroscopic and multi-channel currents were recorded in the excised, inside-out configuration. Patch pipettes were pulled from Corning 8161 glass to tip resistances of […] (macroscopic recordings) or 8-10 mOhm (micropatch studies). […] CFTR currents were recorded in symmetrical solution containing (in mM): 140 N-methyl-D-glucaniine-Cl, 3 MgCl2, 1 EGTA and 10 TES. The pH was adjusted to 7.3. Macroscopic currents were evoked using a ramp protocol from +80 to −80 mV with a 10 sec time period. Patches were held at −80 mV or +80 mV for micropatch (multichannel) recordings. All patch clamp experiments were performed at 21-23° C. Signals from macroscopic and single channel recording were filtered at 20 and 200 Hz, respectively. Data acquisition and analysis were performed using pCLAMP8 and pCLAMP9 software (Axon Instruments). Curve fitting for kinetic analysis was performed using Microcal Origin software. Averaged data are presented as mean +/−SEM. Statistical comparisons were made by performing unpaired t-tests unless otherwise indicated. Ussing Chamber Experiments-CFBE41o epithelial cells stably transfected with ΔF508-CFTR or transiently transfected with wild-type CFTR were cultured as electrically resistive monolayers and assayed in Ussing chambers as described (16). ΔF508-CFTR-expressing monolayers were grown at 27° C. for 2-3 days to enhance the surface expression of this temperature-sensitive mutant. A serosal-to-mucosal Cl^− gradient (120 to 1.2 mM) was imposed, followed by amiloride addition (100 μM) to block Na^+ currents. Compounds were added to both chambers at the indicated concentrations. A 3-mV voltage pulse was imposed every 100 s to monitor transepithelial resistance.

ΔF508-CFTR [1] = target: T1, ΔF508-CFTR (Homo sapiens, UniProt P13569, DEL508-508); assay: Macroscopic currents in excised patches from temperature-corrected HEK-293T cells expressing ΔF508-CFTR; format: biochemical; conditions: high PKA 110 U/ml without PKI
T1 construct: expressed in transfected cells; host or cells: HEK-293T, transient; grown at 28° C. for 24 hrs
T1 sequence (P13569 with tags, fused parts or gaps DEL508-508): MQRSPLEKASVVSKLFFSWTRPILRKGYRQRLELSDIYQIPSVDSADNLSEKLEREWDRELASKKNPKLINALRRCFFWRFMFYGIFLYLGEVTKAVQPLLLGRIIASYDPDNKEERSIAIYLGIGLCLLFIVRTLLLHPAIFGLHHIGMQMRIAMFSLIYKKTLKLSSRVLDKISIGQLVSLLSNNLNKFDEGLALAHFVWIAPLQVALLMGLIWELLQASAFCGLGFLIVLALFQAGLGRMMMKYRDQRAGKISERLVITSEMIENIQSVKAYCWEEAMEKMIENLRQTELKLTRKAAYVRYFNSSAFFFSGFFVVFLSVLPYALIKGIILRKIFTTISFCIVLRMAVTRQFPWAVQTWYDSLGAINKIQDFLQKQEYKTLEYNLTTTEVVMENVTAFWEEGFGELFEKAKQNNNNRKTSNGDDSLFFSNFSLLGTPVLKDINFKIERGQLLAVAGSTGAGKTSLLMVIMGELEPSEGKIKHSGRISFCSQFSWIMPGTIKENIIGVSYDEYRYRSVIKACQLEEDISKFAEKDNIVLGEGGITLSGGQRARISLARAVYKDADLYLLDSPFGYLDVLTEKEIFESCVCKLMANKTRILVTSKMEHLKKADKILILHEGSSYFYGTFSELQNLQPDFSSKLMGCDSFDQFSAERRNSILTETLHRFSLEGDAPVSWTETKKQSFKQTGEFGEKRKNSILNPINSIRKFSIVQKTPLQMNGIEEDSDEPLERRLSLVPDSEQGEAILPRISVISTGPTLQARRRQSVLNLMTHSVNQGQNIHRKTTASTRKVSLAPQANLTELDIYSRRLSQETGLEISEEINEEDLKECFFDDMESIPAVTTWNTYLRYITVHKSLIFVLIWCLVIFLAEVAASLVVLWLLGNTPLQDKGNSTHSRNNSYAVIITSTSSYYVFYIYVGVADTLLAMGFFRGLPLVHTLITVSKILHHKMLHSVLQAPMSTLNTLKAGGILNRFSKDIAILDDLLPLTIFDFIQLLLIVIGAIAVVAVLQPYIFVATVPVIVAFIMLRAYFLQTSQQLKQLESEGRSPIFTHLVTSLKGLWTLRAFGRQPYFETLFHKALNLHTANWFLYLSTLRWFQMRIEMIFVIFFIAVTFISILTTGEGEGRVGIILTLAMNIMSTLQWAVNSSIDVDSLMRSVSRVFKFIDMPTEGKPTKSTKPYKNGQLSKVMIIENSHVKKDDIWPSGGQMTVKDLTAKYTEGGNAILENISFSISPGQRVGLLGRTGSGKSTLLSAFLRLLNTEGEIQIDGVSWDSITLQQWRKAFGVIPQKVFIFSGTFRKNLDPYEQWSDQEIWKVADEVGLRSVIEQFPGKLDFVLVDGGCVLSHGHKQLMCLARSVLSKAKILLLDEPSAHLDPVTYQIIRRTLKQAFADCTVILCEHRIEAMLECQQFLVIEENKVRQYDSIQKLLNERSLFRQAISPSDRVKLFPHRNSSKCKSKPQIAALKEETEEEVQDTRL
Description: (§1) Cell culture DNA constructs and transfections. Baby hamster kidney (BHK) cells stably expressing wild type human CFTR (BHK-CFTR) were provided by J. Hanrahan (McGill University). BHK-CFTR cells were cultured in Dulbecco's modified Eagle's medium (DMEM (Mediatech)) supplemented with 5% fetal bovine serum (FBS) and 1 mM penicillin-streptomycin. The growth media for the BHK-CFTR cells also contained 0.5 mM methotrexate to maintain selection for CFTR-expressing cells (22). HEK-293T cells were transiently transfected with wild-type or mutant CFTR cDNA using the Lipofectamine transfection kit following manufacturer's recommendations (Invitrogen, Corp). HEK-293T cells were cultured in DMEM. All cells were grown on plastic coverslips for patch clamp recording and were used 2-3 days post-seeding. Electrophysiology and data analysis. Macroscopic and multi-channel currents were recorded in the excised, inside-out configuration. Patch pipettes were pulled from Corning 8161 glass to tip resistances of […] (macroscopic recordings) or 8-10 mOhm (micropatch studies). CFTR channels were activated following patch excision by exposure of the cytoplasmic face of the patch to catalytic subunit of protein kinase A (PKA; 110 U/ml; Promega) and Mg-ATP (1.5 mM). CFTR currents were recorded in symmetrical solution containing (in mM): 140 N-methyl-D-glucaniine-Cl, 3 MgCl2, 1 EGTA and 10 TES. The pH was adjusted to 7.3. Macroscopic currents were evoked using a ramp protocol from +80 to −80 mV with a 10 sec time period. Patches were held at −80 mV or +80 mV for micropatch (multichannel) recordings. All patch clamp experiments were performed at 21-23° C. Signals from macroscopic and single channel recording were filtered at 20 and 200 Hz, respectively. Data acquisition and analysis were performed using pCLAMP8 and pCLAMP9 software (Axon Instruments). Curve fitting for kinetic analysis was performed using Microcal Origin software. Averaged data are presented as mean +/−SEM. Statistical comparisons were made by performing unpaired t-tests unless otherwise indicated. Ussing Chamber Experiments-CFBE41o epithelial cells stably transfected with ΔF508-CFTR or transiently transfected with wild-type CFTR were cultured as electrically resistive monolayers and assayed in Ussing chambers as described (16). ΔF508-CFTR-expressing monolayers were grown at 27° C. for 2-3 days to enhance the surface expression of this temperature-sensitive mutant. A serosal-to-mucosal Cl^− gradient (120 to 1.2 mM) was imposed, followed by amiloride addition (100 μM) to block Na^+ currents. Compounds were added to both chambers at the indicated concentrations. A 3-mV voltage pulse was imposed every 100 s to monitor transepithelial resistance.

CFTR-minus cells = assay: Currents across patches excised from CFTR-minus (untransfected) cells; format: biochemical
Description: as §1

R347D-CFTR = target: T2, R347D-CFTR (Homo sapiens, UniProt P13569, R347D); assay: Macroscopic currents in excised patches from HEK-293T cells transiently transfected with R347D-CFTR; format: biochemical
T2 construct: expressed in transfected cells; host or cells: HEK-293T, transient
T2 sequence (P13569 whole entry R347D): as the sequence (P13569 whole entry) above, with R347D counted along it
Description: HEK-293T cells were transiently transfected with wild-type or mutant CFTR cDNA using the Lipofectamine transfection kit following manufacturer's recommendations (Invitrogen, Corp). HEK-293T cells were cultured in DMEM. All cells were grown on plastic coverslips for patch clamp recording and were used 2-3 days post-seeding. […] Macroscopic and multi-channel currents were recorded in the excised, inside-out configuration. Patch pipettes were pulled from Corning 8161 glass to tip resistances of 1.5-3.0 mOhm (macroscopic recordings) or 8-10 mOhm (micropatch studies). CFTR channels were activated following patch excision by exposure of the cytoplasmic face of the patch to catalytic subunit of protein kinase A (PKA; 110 U/ml; Promega) and Mg-ATP (1.5 mM). CFTR currents were recorded in symmetrical solution containing (in mM): 140 N-methyl-D-glucaniine-Cl, 3 MgCl2, 1 EGTA and 10 TES. The pH was adjusted to 7.3. Macroscopic currents were evoked using a ramp protocol from +80 to −80 mV with a 10 sec time period. Patches were held at −80 mV or +80 mV for micropatch (multichannel) recordings. All patch clamp experiments were performed at 21-23° C. Signals from macroscopic and single channel recording were filtered at 20 and 200 Hz, respectively. Data acquisition and analysis were performed using pCLAMP8 and pCLAMP9 software (Axon Instruments). […]

AR-S660A-CFTR = target: T3, AR-S660A-CFTR (Homo sapiens, UniProt P13569, DEL708-835/S660A); assay: Macroscopic currents in excised HEK-293T patches, R domain deletion mutant, no PKA; format: biochemical; conditions: 50 μM
T3 construct: expressed in transfected cells; host or cells: HEK-293T, transient
T3 sequence (P13569 with tags, fused parts or gaps S660A/DEL708-835): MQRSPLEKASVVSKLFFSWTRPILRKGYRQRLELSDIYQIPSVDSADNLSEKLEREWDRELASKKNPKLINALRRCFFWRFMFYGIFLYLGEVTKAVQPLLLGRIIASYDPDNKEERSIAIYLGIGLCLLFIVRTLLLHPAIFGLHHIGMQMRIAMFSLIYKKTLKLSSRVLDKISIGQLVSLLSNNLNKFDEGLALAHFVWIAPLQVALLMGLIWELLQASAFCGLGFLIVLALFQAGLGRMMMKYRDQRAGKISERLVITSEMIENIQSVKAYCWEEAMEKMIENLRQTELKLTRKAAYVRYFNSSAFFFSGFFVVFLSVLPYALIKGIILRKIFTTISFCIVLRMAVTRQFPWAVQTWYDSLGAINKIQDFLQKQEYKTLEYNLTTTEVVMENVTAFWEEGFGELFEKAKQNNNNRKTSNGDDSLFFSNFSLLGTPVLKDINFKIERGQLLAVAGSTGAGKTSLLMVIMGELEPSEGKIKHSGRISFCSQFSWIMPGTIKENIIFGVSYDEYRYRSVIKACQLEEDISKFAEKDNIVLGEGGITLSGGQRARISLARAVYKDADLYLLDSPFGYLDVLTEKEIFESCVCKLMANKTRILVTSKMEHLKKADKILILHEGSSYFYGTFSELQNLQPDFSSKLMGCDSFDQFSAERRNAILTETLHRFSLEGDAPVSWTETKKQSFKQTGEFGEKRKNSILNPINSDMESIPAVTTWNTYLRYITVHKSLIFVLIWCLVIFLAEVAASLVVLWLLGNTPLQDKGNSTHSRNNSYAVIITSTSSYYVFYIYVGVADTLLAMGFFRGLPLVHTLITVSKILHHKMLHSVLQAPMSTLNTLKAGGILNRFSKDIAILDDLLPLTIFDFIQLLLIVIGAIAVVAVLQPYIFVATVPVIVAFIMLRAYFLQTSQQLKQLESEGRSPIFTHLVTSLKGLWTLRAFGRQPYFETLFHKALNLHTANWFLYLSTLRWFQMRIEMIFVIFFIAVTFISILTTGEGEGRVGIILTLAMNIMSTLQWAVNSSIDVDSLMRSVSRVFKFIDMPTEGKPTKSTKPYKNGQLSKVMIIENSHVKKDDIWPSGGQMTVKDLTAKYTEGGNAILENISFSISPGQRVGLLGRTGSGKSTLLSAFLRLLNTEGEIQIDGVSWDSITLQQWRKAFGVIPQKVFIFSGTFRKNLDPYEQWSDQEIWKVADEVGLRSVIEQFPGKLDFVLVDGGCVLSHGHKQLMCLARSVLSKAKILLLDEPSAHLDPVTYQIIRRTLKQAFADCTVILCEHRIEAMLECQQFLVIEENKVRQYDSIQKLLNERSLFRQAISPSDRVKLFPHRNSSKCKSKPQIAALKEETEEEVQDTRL
Description: Cell culture DNA constructs and transfections. Baby hamster kidney (BHK) cells stably expressing wild type human CFTR (BHK-CFTR) were provided by J. Hanrahan (McGill University). BHK-CFTR cells were cultured in Dulbecco's modified Eagle's medium (DMEM (Mediatech)) supplemented with 5% fetal bovine serum (FBS) and 1 mM penicillin-streptomycin. The growth media for the BHK-CFTR cells also contained 0.5 mM methotrexate to maintain selection for CFTR-expressing cells (22). HEK-293T cells were transiently transfected with wild-type or mutant CFTR cDNA using the Lipofectamine transfection kit following manufacturer's recommendations (Invitrogen, Corp). HEK-293T cells were cultured in DMEM. All cells were grown on plastic coverslips for patch clamp recording and were used 2-3 days post-seeding. Electrophysiology and data analysis. Macroscopic and multi-channel currents were recorded in the excised, inside-out configuration. Patch pipettes were pulled from Corning 8161 glass to tip resistances of […] (macroscopic recordings) or 8-10 mOhm (micropatch studies). CFTR channels were activated following patch excision by exposure of the cytoplasmic face of the patch to catalytic subunit of protein kinase A (PKA; 110 U/ml; Promega) and Mg-ATP (1.5 mM). CFTR currents were recorded in symmetrical solution containing (in mM): 140 N-methyl-D-glucaniine-Cl, 3 MgCl2, 1 EGTA and 10 TES. […]

G551D-CFTR = target: T4, G551D-CFTR (Homo sapiens, UniProt P13569, G551D); assay: Macroscopic currents in excised patches from HEK-293T cells expressing G551D-CFTR; format: biochemical
T4 construct: expressed in transfected cells; host or cells: HEK-293T, transient
T4 sequence (P13569 whole entry G551D): as the sequence (P13569 whole entry) above, with G551D counted along it
Description: as §1, with “Ussing Chamber Experiments-CFBE41o epithelial cells stably transfected with ΔF508-CFTR or transiently transfected with wild-type CFTR were cultured as electrically resistive monolayers and assayed in Ussing chambers as described (16). ΔF508-CFTR-expressing monolayers were grown at 27° C. for 2-3 days to enhance the surface expression of this temperature-sensitive mutant. A serosal-to-mucosal Cl^− gradient (120 to 1.2 mM) was imposed, followed by amiloride addition (100 μM) to block Na^+ currents. Compounds were added to both chambers at the indicated concentrations. A 3-mV voltage pulse was imposed every 100 s to monitor transepithelial resistance.” left out

AF508-CFTR = conditions: tissue culture cells and mice; reported by Egan et al. (12); cited from earlier work
ΔF508-CFTR [2] = target: T1, ΔF508-CFTR; assay: Ussing chamber transepithelial chloride currents, temperature-corrected ΔF508-CFTR CFBE41o- monolayers; format: cell-based; conditions: 1 μM compound with 1 μM forskolin; N=8-12
Description: as §1

Structure (SMILES): O=C(O)c1ccccc1Nc1ccccc1 [DPC, reference compound]
increased CFTR currents, thiolated channels (wild-type CFTR; 0.5 mM): neither

Structure (SMILES): O=c1c(-c2ccc(O)cc2)coc2cc(O)cc(O)c12 [genistein, reference compound]
potentiation of the forskolin effect on ΔF508-CFTR transepithelial currents (ΔF508-CFTR [2]): failed to potentiate the forskolin response

Structure (SMILES): NC(CCc1ccccc1)C(=O)O (stereo not drawn) [APB, reference compound]
stimulation of thiolated CFTR channels (wild-type CFTR; 400 μM, same conditions as FIG. 1A): fails to stimulate

Structure (SMILES): N#CS [SCN^−, reference compound]
increased CFTR currents, thiolated channels (wild-type CFTR; 10 mM): neither

Structure (SMILES): COc1ccc(Cl)cc1C(=O)NCCc1ccc(S(=O)(=O)NC(=O)NC2CCCCC2)cc1 [glibenclamide]
current induced at depolarizing potential in patches excised from CFTR-minus cells (CFTR-minus cells): absent

More lines, main results first:

effect on currents of moderately phosphorylated wild-type channels (wild-type CFTR; 5-300 μM, high PKA followed by PKI, seven experiments): voltage-dependent block at all doses | effect on currents of highly phosphorylated CFTR channels (wild-type CFTR; continuous high PKA 110 U/ml without PKI): Only voltage-dependent block | effect on ΔF508-CFTR macroscopic currents (ΔF508-CFTR [1]; 100 μM): dramatically stimulated | effect on currents of moderately phosphorylated R347D-CFTR channels (R347D-CFTR; low doses, high PKA followed by PKI): stimulates currents in both directions | effect on currents in the absence of PKA (AR-S660A-CFTR): markedly stimulate | effect on G551D-CFTR activity (G551D-CFTR; 200-400 μM): markedly stimulated
Structure (SMILES): O=C(O)c1cc([N+](=O)[O-])ccc1NCCCc1ccccc1 [NPPB, 5-nitro-2-(3-phenylpropyl-amino)-benzoic acid, reference compound]
effect on macroscopic current of thiolated (glutathionylated) CFTR channels (wild-type CFTR; 200 μM, high PKA 110 U/ml, 1.5 mM MgATP, PKI, diamide/GSH 20 μM): a large increase in current at depolarizing voltages | effect on currents of poorly phosphorylated, not thiolated CFTR channels (wild-type CFTR; 30-230 μM, low PKA 2 U/ml followed by PKI): stimulated CFTR currents at depolarizing potentials | effect on currents of poorly phosphorylated CFTR channels at higher concentrations (wild-type CFTR; higher concentrations of NPPB, low PKA then PKI): block was observed at all recording potentials | current induced at depolarizing potential in patches excised from CFTR-minus cells (CFTR-minus cells): absent | effect on currents across a patch from untransfected HEK-293T cells (CFTR-minus cells; untransfected HEK-293T): neither | stimulation of R347D-CFTR currents at depolarizing potentials compared with wild type (R347D-CFTR; all levels of phosphorylation): to a greater extent than for wild type CFTR | concentration dependence of G551D-CFTR activation compared to the wild type channel (G551D-CFTR; NPPB titration, wild type activated with low PKA): appreciable shift toward higher concentrations

time course and reversibility of the stimulation of CFTR current (wild-type CFTR): transient | voltage dependence of the stimulation of CFTR current (wild-type CFTR): voltage-independent | effect on ΔF508-CFTR macroscopic currents (ΔF508-CFTR [1]; 10 μM): dramatically stimulated
Structure (SMILES): COc1cc(/C=C/C(=O)CC(=O)/C=C/c2ccc(O)c(OC)c2)ccc1O [curcumin]
effect on moderately phosphorylated CFTR channels (wild-type CFTR; 0.5-40.5 μM, six experiments): stimulates moderately phosphorylated CFTR channels | biosynthetic maturation and functional correction of the ΔF508-CFTR mutant (AF508-CFTR): promotes the biosynthetic maturation and functional correction

effect on CFTR channel activity (wild-type CFTR; 100 μM, data not shown): weak effect
Structure (SMILES): NS(=O)(=O)c1cc([N+](=O)[O-])ccc1NCCCc1ccccc1 [NPPB-sulf]
